Experiment [1] addresses T1, Serine/threonine-protein kinase TAO2 (Homo sapiens) (UniProt Q9UL54).
T1 sequence (whole entry): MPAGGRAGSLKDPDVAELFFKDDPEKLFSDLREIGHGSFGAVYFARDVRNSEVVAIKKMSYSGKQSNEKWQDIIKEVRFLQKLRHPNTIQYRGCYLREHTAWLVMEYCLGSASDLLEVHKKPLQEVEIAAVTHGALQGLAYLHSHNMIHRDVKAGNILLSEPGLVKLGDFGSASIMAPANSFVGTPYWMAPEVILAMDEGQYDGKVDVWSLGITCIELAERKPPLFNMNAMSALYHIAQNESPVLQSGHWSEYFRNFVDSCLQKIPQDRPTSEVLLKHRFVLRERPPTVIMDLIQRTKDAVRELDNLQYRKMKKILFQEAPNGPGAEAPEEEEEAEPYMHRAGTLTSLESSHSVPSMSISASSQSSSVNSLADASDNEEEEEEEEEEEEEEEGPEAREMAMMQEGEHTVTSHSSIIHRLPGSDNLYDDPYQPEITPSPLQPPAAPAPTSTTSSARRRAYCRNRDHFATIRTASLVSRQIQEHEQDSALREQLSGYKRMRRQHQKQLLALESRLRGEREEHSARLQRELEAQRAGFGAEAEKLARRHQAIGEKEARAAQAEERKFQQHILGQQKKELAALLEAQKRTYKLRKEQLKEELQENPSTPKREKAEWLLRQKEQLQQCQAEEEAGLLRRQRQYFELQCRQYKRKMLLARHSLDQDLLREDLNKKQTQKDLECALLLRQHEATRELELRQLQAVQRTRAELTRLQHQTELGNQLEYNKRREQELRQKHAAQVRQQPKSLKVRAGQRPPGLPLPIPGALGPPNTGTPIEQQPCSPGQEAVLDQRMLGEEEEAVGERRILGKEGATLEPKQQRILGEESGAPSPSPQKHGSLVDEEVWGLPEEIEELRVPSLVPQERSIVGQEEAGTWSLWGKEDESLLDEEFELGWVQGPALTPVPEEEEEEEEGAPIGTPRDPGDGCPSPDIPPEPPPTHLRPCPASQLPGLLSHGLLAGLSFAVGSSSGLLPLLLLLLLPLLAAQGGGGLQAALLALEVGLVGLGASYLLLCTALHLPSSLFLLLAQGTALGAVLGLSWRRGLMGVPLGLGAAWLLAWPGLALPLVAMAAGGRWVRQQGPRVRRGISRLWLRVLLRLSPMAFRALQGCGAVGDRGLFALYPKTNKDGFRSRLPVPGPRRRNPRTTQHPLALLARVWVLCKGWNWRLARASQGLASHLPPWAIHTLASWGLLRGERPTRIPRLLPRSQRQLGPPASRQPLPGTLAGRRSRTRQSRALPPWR
The experiment can be described thus: Residual activity of TAOK2 at 10 uM by microplate scintillation counting.

Experiment [2] has as its target T2, Tyrosine-protein kinase JAK3 (Homo sapiens) (UniProt P52333).
T2 sequence (whole entry): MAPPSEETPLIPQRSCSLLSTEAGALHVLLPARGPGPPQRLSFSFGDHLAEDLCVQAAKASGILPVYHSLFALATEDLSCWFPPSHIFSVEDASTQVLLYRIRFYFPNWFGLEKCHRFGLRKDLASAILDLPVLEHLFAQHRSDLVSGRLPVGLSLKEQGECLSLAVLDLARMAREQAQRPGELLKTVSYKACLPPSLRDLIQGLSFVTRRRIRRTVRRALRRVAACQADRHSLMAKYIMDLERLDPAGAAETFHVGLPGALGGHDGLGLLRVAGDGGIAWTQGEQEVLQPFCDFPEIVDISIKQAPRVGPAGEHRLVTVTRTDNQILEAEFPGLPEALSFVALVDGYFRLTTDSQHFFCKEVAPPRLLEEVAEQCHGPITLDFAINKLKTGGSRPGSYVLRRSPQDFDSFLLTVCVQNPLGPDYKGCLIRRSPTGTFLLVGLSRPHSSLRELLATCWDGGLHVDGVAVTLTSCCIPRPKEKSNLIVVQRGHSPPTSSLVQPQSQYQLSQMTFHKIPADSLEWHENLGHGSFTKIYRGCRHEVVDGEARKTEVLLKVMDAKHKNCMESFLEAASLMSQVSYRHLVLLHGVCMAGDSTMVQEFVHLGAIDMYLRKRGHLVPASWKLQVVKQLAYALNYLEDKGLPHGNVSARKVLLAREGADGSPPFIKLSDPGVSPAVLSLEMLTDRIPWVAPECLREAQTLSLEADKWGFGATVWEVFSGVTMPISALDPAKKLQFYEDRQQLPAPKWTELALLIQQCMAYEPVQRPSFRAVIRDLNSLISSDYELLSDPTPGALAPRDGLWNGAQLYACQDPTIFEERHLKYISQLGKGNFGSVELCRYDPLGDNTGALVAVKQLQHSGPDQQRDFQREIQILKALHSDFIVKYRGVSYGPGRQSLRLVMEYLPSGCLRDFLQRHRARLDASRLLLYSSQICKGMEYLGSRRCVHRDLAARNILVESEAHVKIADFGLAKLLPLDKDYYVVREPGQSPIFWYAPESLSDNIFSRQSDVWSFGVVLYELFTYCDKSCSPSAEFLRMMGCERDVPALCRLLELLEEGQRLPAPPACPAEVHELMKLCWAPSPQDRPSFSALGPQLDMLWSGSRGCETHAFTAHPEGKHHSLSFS
The experiment can be described thus: Residual activity of JAK3 at 1 uM by microplate scintillation counting.

The structures appear in SMILES notation.

A word on the residual activity: it is the signal under treatment as a percentage of the control signal.

For the compound `COc1cc2c(Oc3ccc(-c4nc5ccccc5s4)cc3)ncnc2cc1OCCCN1CCCC1`, the residual activity in experiment [1] was 122%; in experiment [2], 93%.

Take `COc1cc2c(Oc3ccc(-c4nc5ccccc5s4)cc3F)ncnc2cc1OCCCN1CCN(C)CC1`: the residual activity in experiment [1] stood at 129%; in experiment [2], 92%.

For `COc1cc2c(Oc3ccc(-c4nc5ccccc5s4)cc3)ncnc2cc1OCCCN1CCN(C)CC1`, the residual activity in experiment [1] came out at 141%; in experiment [2], 101%.

For the origin of these results see ChEMBL document CHEMBL1152560, “Substituted 2-arylbenzothiazoles as kinase inhibitors: hit-to-lead optimization” (Bioorg Med Chem, 2009).
